Reference: patent US11612628B2, “Compositions for the treatment of articular disorders” (Aboca S.p.A. Società Agricola, priority 2017, dated 2023)
Values joined by “and” are separate entries in the source; they are usually repeats but may differ in a detail not shown here. Identical values can stand only once.

What was measured:
Format in all cases: in vivo, Sprague-Dawley rats
[1] = system: Monoiodine Acetate-Induced Osteoarthritis Pain Model; experiment: Incapacitance test, MIA-induced osteoarthritis rats; conditions: for Incapacitance test Δ Weight (contralateral - ipsilateral paw): 20 μL i.a. day 8 after MIA, Table 2; for Incapacitance test Δ Weight (paw contralateral - ipsilateral): 20 μL i.a. of fraction (2 mg/ml) or triamcinolone acetonide (100 μg), Table 9
Description: (§1) Damage to the joint was induced by an individual intraarticular administration, in the paw of a pre-anesthetized rat, of 2 mg of […] (MIA) (volume: 25 μl) according to what described by Guingamp et al., Arthritis Rheum., 40:1670-1679, 1997.
(§2) The experiments described below were performed by injecting into the joint 20 μl of • control (physiological solution); • extract of lyophilized Echinacea purpurea, fraction soluble in hydroalcoholic solution 40-50%, denoted in the figures as 13C1608:2-10-20 mg/ml in PBS (phosphate buffered saline); • extract of lyophilized Centella asiatica, fraction soluble in hydroalcoholic solution 65-75%, denoted in the figures as 14G1862:0.2-1-2 mg/ml in PBS; • bovine synovial fluid: as is; • Hyalgan (Low-molecular weight Hyaluronic acid sodium salt (MW ˜500-730 kDa)):as is; • Jonexa (mixture comprised of a hylastan gel, i.e. a hyaluronic acid crosslinked with divinyl sulfone, and a sodium hyaluronate liquid in the gel-liquid ratio of 80:20): as is; • extract of Centella asiatica fraction soluble in hydroalcoholic solution 65-75%, denoted in the figures as 14G1862: 2 mg/ml in PBS • extract of lyophilized Centella asiatica, fraction soluble in hydroalcoholic solution, denoted in the figures as ABO-AR-2016-391: 2 mg/ml in PBS; • extract of lyophilized Centella asiatica, fraction soluble in hydroalcoholic solution, corresponding to the permeate of fraction ABO-AR-2016-391 after filtration, denoted in the figures as ABO-AR-2016-392:2 mg/ml in PBS; • extract of lyophilized Centella asiatica, fraction soluble in hydroalcoholic solution, corresponding to the retentate of fraction ABO-AR-2016-391 after filtration, denoted in the figures as ABO-AR-2016-393:2 mg/ml in PBS; • Triamcinolone acetonide: 100 μg/[…] • MIX (coextract) Centella+Echinacea lot 17H0246, as described above: 11 mg/ml in water f.p.i.
(§3) Injected material: 20 μL of each sample assayed were injected into rat tibiotarsal joint (using a 26Gx3/8 needle) at […] from damage induction by MIA.
(§4) The mixture of plant extracts was solubilized in accordance with the following protocol: 5.5 g of lyophilized mixture were introduced in a beaker containing 450 g of water and left under stirring 15 min; thereafter, the weight of the liquid was brought to 500 g. For each injection, 30 g of solution were collected and filtered in sequence with 0.45-μ, and 0.22-μm filters. For each filtering, the first 3-4 g of solution were discarded. 20 μL of mixture were injected into the tibiotarsal joint of the rat (using a 26Gx3/8 needle) after having flexed its paw so as to form a 90°-degree angle, at day 8 from articular (joint) damage induction by MIA. For the other substances as well 20 μL of solution were injected (Hyalgan 10 mg/ml; triamcinolone acetonide 100 μg/20m1).
The test is based on the evaluation of the pressure exerted by a rat under conditions of normal posture on each of the hind legs (Hay et al. Neurosci. 78:843-850, 1997). Rats were placed into a small plexiglass box, their hind legs positioned onto two transducers recording the weight the rat distributes on each of the two paws. In case a neuropathy or an inflammation has been induced on one paw, the rat will exert less weight on said paw, compared to the other one.

[2] = system: Monoiodine Acetate-Induced Osteoarthritis Pain Model; experiment: Beam balance test, MIA-induced osteoarthritis rats; conditions: for Beam balance test score, from normal (0) to pathological (4): 20 μL i.a. day 8 after MIA, Table 3
Description: as §1, §2, §4
A 1-meter-long wooden beam having a 1 cm-square section was placed at a height of about 40 cm. […]

[3] = system: Monoiodine Acetate-Induced Osteoarthritis Pain Model; experiment: Paw pressure test, MIA-induced osteoarthritis rats
Description: as §1, §2, §3, §4
An analgesimeter (Ugo Basile, Varese, Italy) was used. A pressure increasing at a constant rate (32 g/s) was applied on the hind paw of the animal by a blunt conical element. The nociceptive threshold of the rat was expressed as that force to which the animal reacts by withdrawing the paw or vocalizing (Leighton et al., 1988).

[4] = system: Monoiodine Acetate-Induced Osteoarthritis Pain Model; experiment: Animex test (spontaneous activity), MIA-induced osteoarthritis rats; conditions: for Animex test Number of movements: 20 μL i.a. day 8 after MIA, Table 4
Description: as §1, §2
as §4, with “For the other substances as well 20 μL of solution were injected (Hyalgan 10 mg/ml; triamcinolone acetonide 100 μg/20m1).” left out
The instrument enables to record the spontaneous activity of the animals through use of electromagnetic fields and resonance circuits. […] Variations are recorded by a number counter.

[5] = system: rat tibiotarsal joint; experiment: Histology of the tibiotarsal joint, MIA-treated rats
Description: as §1, §2, §3
Tissue samples were fixed in 4% formalin in phosphate buffer for 24 hours. Subsequently, samples were decalcified for 28 days in a suitable decalcifying solution (1.6M formic acid, 0.76M sodium formate). At the end of the decalcification, the samples were dehydrated by passages in alcohol with increasing titer, and then included in paraffin. From samples thus processed, 7 μm-thick sections were obtained which were stained by Hematoxylin-Eosin.
The samples were observed under transmitted light optical microscope to assess the morphological parameters subject of analysis: • Inflammatory infiltrate • Synovial hyperplasia • Fibrin deposition in the joint space • Synovial vascularization • Cartilage erosion • Bone erosion • Joint space width
Every morphological parameter was evaluated by a specially provided score (0:absent, 1:scarce, 2:moderate, 3:serious). The evaluation was performed by three separate operators, in blind relative to the origin of the slides. A fourth operator collected data and obtained the final means. For each joint, at least three slides, and for each group at least 6 animals were evaluated. Results are expressed as mean±standard error.

[6] = coextract study, single i.a. 20 μL, days 14, 30, 60
[7] = Centella fractions study, FIGS. 3 and 4

CC1(C)O[C@@H]2C[C@H]3[C@@H]4CCC5=CC(=O)C=C[C@]5(C)[C@@]4(F)[C@@H](O)C[C@]3(C)[C@]2(C(=O)CO)O1 [triamcinolone acetonide, Triamcinolone acetonide]
Incapacitance test effect (in words) ([1]; Centella fractions study, fractions 2 mg/ml, triamcinolone acetonide 100 μg): active both at days 14 and 30 | Incapacitance test Δ Weight (contralateral - ipsilateral paw) ([1]; Day 14): 45.7 ± 3.9^^ g | Incapacitance test Δ Weight (paw contralateral - ipsilateral) ([1]; Day 14): 28.7 ± 3.2^ g | Incapacitance test Δ Weight (contralateral - ipsilateral paw) ([1]; Day 30): 25.4 ± 4.3^^ g | Incapacitance test Δ Weight (paw contralateral - ipsilateral) ([1]; Day 30): 15.6 ± 5.4^ g | Incapacitance test Δ Weight (contralateral - ipsilateral paw) ([1]; Day 60): 20.9 ± 5.4^ g | Incapacitance test Δ Weight (paw contralateral - ipsilateral) ([1]; Day 60): 5.6 ± 4.4 g | reduction of MIA-induced postural alteration, Incapacitance test (in words) [1, 6]: reduces, it also in a statistically significant manner, MIA-induced alteration at all timings considered | Beam balance test score, from normal (0) to pathological (4) ([2]; Day 14): 1.8 ± 0.2^ | Beam balance test score, from normal (0) to pathological (4) ([2]; Day 30): 1.3 ± 0.2 | Beam balance test score, from normal (0) to pathological (4) ([2]; Day 60): 0.8 ± 0.2 | motor abilities, Beam balance test (in words) [2, 6]: statistical significance is reached solely at day 14 | Paw pressure test Weight ([3]; Day 14, contralateral, 20 μL i.a. day 8 after MIA, Table 1): 64.5 ± 0.9 g | Paw pressure test Weight ([3]; Day 14, contralateral, 20 μL i.a. of fraction (2 mg/ml) or triamcinolone acetonide (100 μg), Table 8): 65.3 ± 1.0 g | Paw pressure test Weight ([3]; Day 14, ipsilateral, 20 μL i.a. day 8 after MIA, Table 1): 51.9 ± 1.3^^ g | Paw pressure test Weight ([3]; Day 14, ipsilateral, 20 μL i.a. of fraction (2 mg/ml) or triamcinolone acetonide (100 μg), Table 8): 52.8 ± 1.1 g | Paw pressure test Weight ([3]; Day 30, contralateral, 20 μL i.a. day 8 after MIA, Table 1): 68.4 ± 1.6 g | Paw pressure test Weight ([3]; Day 30, contralateral, 20 μL i.a. of fraction (2 mg/ml) or triamcinolone acetonide (100 μg), Table 8): 65.8 ± 0.5 g | Paw pressure test Weight ([3]; Day 30, ipsilateral, 20 μL i.a. day 8 after MIA, Table 1): 57.4 ± 0.4^ g | Paw pressure test Weight ([3]; Day 30, ipsilateral, 20 μL i.a. of fraction (2 mg/ml) or triamcinolone acetonide (100 μg), Table 8): 56.7±2.5 g and 56.7 ± 2.5^^ g | Paw pressure test Weight ([3]; Day 60, contralateral, 20 μL i.a. day 8 after MIA, Table 1): 64.9 ± 2.1 g | Paw pressure test Weight ([3]; Day 60, contralateral, 20 μL i.a. of fraction (2 mg/ml) or triamcinolone acetonide (100 μg), Table 8): 66.4 ± 0.7 g | Paw pressure test Weight ([3]; Day 60, ipsilateral, 20 μL i.a. day 8 after MIA, Table 1): 63.0 ± 1.5^ g | Paw pressure test Weight ([3]; Day 60, ipsilateral, 20 μL i.a. of fraction (2 mg/ml) or triamcinolone acetonide (100 μg), Table 8): 61.3 ± 1.6 g | antiperalgesic effect, Paw pressure test (in words) [3, 6]: significantly reduces the articular pain reaction at all timings | Animex test Number of movements ([4]; Day 14): 487.3 ± 57.3^ | Animex test Number of movements ([4]; Day 30): 583.3 ± 45.2^ | Animex test Number of movements ([4]; Day 60): 688.9 ± 54.2^ | spontaneous mobility, Animex test (in words) [4, 6]: effectiveness is lower than that of the plant mixture | cartilage and bone tissue erosion (histology, in words) [5, 7]: significant effectiveness | inflammatory infiltrate (histology, in words) [5, 7]: significant effectiveness | joint space reduction (histology, in words) [5, 7]: reduced effectiveness to 15- and 30-day timings and a more marked effectiveness after 60 days | morphological parameters overall (histology, in words) [5, 7]: only partially reduces the damaging effects of MIA | other parameters: synovial hyperplasia, fibrin deposition, synovial vascularization (histology, in words) [5, 7]: reduced effectiveness to 15- and 30-day timings and a more marked effectiveness after 60 days | articular space width (histology, in words) ([5]; coextract study, FIG. 18-19): Evident effects | erosion of cartilage and subchondral bone (histology, in words) ([5]; coextract study, FIG. 18-19): analogous result | fibrin deposition in the articular space (histology, in words) ([5]; coextract study, FIG. 18-19): More moderate effects | inflammatory infiltrate (histology, in words) ([5]; coextract study, FIG. 18-19): capable of eliminating the presence of inflammatory infiltrate at all timings analyzed | synovial hyperplasia and vascularization (histology, in words) ([5]; coextract study, FIG. 18-19): More moderate effects
